Among the data in ChEMBL document CHEMBL3991601, “The target landscape of clinical kinase drugs” (Science, 2017) are Kd values, retold here.

pKd: −log10 of the molar value. Calls of active or inactive are those of the source.

In test [1] the target is T1, Serine/threonine-protein kinase Nek3 (Homo sapiens, UniProt P51956).
T1 sequence (P51956 whole entry): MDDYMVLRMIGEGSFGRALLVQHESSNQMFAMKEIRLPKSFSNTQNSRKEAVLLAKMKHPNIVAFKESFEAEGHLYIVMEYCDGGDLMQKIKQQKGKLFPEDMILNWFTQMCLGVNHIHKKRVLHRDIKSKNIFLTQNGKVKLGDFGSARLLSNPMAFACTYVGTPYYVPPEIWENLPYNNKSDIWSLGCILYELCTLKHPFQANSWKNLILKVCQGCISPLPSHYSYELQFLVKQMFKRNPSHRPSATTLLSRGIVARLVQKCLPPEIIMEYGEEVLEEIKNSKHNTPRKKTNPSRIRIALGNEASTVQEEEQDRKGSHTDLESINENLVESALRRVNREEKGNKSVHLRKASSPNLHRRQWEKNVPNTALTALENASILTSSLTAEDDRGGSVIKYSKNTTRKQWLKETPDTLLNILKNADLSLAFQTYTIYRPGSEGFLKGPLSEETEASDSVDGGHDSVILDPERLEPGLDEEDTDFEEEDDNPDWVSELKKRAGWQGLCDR

Test [2] has as its target U5 small nuclear ribonucleoprotein 200 kDa helicase (Homo sapiens, UniProt O75643).
Test [3] has as its target Insulin-like growth factor 1 receptor (Homo sapiens, UniProt P08069).
Test [4] has as its target Mitogen-activated protein kinase kinase kinase kinase 1 (Homo sapiens, UniProt Q92918).
Test [5] addresses T2, Breakpoint cluster region protein (Homo sapiens, UniProt P11274).
T2 sequence (P11274 whole entry): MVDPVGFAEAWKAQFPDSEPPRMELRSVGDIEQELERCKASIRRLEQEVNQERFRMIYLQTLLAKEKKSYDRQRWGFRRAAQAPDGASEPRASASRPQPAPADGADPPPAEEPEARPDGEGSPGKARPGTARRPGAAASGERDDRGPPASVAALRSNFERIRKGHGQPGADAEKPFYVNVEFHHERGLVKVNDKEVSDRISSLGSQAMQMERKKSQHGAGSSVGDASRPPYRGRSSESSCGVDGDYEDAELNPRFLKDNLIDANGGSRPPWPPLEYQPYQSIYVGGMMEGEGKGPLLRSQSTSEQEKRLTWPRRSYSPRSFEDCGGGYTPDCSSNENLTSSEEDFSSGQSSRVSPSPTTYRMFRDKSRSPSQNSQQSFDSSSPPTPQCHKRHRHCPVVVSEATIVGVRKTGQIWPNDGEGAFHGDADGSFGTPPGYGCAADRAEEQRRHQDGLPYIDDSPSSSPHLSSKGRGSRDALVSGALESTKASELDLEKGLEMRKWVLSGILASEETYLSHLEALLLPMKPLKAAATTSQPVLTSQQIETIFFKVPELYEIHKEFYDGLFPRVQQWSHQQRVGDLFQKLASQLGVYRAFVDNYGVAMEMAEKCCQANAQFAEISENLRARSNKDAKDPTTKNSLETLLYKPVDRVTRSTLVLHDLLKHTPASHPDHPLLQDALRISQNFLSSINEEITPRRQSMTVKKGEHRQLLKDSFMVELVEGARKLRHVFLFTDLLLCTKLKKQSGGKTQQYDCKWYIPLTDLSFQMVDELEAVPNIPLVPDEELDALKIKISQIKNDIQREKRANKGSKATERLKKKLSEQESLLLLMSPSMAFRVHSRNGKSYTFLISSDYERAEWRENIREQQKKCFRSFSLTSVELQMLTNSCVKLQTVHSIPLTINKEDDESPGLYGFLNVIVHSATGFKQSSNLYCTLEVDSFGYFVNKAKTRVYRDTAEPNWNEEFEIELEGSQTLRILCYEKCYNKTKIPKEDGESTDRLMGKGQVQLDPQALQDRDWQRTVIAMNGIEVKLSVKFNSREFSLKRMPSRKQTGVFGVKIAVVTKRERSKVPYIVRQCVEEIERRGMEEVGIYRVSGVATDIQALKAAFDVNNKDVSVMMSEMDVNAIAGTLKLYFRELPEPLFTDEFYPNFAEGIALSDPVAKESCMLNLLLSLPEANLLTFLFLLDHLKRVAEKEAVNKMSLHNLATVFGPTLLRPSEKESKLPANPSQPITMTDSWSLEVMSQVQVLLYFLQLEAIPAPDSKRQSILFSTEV

Test [6] deals with RAC-gamma serine/threonine-protein kinase (Homo sapiens, UniProt Q9Y243).
Chain of RAC-gamma serine/threonine-protein kinase (Q9Y243 whole entry): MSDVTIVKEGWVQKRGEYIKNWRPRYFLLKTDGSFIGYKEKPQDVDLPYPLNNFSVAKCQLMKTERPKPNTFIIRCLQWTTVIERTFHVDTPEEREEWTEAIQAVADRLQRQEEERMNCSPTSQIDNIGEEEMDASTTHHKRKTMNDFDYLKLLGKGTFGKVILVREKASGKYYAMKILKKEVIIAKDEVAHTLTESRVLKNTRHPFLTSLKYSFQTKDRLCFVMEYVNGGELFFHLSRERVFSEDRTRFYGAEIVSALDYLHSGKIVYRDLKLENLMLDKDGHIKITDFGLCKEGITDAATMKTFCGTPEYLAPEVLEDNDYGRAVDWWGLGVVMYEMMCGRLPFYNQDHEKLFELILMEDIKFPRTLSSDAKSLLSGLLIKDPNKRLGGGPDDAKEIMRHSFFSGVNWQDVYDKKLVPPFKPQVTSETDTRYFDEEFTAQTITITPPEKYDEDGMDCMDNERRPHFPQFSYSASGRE
A further test addresses T3, Rab-like protein 3 (Homo sapiens, UniProt Q5HYI8).
T3 sequence (Q5HYI8 whole entry): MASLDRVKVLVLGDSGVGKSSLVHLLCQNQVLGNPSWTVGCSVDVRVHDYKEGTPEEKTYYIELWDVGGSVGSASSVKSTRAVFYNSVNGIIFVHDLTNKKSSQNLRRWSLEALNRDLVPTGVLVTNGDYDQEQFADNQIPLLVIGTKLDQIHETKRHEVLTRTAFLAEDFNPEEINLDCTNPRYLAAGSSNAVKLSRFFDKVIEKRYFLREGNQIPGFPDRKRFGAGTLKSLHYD

The target in test [7] is T4, Serine/threonine-protein kinase NLK (Homo sapiens, UniProt Q9UBE8).
T4 sequence (Q9UBE8 whole entry): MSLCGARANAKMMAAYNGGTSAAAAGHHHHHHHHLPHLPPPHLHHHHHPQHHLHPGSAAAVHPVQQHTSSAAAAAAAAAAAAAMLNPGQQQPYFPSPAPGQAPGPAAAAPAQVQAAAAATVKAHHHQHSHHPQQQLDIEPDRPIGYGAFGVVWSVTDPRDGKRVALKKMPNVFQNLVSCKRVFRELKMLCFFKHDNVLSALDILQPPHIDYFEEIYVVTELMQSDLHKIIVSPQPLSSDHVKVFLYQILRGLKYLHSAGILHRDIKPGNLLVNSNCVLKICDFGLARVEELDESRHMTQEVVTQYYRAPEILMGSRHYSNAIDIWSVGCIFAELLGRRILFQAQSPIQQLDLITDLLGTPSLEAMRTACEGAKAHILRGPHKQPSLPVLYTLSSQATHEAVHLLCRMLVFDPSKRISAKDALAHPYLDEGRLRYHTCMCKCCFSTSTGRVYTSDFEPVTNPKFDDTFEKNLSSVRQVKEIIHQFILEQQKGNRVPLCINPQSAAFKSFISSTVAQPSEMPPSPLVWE
Also: in the data inactive means no Kd found up to 30 µM.

Chain of Insulin-like growth factor 1 receptor (P08069 31-736 limits assumed): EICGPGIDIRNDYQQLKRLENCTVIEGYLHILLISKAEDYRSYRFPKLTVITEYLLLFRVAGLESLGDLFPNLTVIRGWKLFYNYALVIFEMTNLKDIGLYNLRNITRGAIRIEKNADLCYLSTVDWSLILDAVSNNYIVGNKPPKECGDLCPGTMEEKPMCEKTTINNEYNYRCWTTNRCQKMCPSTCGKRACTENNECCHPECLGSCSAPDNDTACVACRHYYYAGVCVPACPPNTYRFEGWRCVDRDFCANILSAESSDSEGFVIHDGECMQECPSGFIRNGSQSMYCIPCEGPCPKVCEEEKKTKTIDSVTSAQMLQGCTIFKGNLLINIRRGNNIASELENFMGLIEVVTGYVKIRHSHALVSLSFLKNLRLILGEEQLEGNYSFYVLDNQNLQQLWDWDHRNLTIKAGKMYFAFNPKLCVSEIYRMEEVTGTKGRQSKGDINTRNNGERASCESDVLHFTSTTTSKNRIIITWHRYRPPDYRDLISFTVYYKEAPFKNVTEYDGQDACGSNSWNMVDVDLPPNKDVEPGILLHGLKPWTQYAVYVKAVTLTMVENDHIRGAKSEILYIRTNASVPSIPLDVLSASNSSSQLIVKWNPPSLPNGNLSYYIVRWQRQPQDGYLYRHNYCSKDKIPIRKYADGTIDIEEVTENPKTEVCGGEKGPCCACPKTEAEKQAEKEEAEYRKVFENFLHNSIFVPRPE
Chain of Insulin-like growth factor 1 receptor (P08069 741-1367 limits assumed): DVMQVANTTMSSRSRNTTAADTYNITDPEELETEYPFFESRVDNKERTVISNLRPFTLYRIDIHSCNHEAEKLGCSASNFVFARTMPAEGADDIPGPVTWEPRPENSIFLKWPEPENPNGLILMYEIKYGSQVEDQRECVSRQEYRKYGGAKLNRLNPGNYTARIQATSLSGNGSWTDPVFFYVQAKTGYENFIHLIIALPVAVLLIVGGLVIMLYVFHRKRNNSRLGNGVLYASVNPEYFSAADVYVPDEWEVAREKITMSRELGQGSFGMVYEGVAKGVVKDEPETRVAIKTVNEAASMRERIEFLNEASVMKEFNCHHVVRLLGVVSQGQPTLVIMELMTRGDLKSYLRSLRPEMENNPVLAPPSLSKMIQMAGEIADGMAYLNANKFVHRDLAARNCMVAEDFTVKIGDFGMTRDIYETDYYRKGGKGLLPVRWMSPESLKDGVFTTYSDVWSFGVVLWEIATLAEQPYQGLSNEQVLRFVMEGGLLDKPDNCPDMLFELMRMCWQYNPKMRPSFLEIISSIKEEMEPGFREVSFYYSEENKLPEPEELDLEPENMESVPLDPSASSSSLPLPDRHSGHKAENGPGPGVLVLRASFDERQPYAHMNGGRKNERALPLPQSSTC
Chain of U5 small nuclear ribonucleoprotein 200 kDa helicase (O75643 whole entry): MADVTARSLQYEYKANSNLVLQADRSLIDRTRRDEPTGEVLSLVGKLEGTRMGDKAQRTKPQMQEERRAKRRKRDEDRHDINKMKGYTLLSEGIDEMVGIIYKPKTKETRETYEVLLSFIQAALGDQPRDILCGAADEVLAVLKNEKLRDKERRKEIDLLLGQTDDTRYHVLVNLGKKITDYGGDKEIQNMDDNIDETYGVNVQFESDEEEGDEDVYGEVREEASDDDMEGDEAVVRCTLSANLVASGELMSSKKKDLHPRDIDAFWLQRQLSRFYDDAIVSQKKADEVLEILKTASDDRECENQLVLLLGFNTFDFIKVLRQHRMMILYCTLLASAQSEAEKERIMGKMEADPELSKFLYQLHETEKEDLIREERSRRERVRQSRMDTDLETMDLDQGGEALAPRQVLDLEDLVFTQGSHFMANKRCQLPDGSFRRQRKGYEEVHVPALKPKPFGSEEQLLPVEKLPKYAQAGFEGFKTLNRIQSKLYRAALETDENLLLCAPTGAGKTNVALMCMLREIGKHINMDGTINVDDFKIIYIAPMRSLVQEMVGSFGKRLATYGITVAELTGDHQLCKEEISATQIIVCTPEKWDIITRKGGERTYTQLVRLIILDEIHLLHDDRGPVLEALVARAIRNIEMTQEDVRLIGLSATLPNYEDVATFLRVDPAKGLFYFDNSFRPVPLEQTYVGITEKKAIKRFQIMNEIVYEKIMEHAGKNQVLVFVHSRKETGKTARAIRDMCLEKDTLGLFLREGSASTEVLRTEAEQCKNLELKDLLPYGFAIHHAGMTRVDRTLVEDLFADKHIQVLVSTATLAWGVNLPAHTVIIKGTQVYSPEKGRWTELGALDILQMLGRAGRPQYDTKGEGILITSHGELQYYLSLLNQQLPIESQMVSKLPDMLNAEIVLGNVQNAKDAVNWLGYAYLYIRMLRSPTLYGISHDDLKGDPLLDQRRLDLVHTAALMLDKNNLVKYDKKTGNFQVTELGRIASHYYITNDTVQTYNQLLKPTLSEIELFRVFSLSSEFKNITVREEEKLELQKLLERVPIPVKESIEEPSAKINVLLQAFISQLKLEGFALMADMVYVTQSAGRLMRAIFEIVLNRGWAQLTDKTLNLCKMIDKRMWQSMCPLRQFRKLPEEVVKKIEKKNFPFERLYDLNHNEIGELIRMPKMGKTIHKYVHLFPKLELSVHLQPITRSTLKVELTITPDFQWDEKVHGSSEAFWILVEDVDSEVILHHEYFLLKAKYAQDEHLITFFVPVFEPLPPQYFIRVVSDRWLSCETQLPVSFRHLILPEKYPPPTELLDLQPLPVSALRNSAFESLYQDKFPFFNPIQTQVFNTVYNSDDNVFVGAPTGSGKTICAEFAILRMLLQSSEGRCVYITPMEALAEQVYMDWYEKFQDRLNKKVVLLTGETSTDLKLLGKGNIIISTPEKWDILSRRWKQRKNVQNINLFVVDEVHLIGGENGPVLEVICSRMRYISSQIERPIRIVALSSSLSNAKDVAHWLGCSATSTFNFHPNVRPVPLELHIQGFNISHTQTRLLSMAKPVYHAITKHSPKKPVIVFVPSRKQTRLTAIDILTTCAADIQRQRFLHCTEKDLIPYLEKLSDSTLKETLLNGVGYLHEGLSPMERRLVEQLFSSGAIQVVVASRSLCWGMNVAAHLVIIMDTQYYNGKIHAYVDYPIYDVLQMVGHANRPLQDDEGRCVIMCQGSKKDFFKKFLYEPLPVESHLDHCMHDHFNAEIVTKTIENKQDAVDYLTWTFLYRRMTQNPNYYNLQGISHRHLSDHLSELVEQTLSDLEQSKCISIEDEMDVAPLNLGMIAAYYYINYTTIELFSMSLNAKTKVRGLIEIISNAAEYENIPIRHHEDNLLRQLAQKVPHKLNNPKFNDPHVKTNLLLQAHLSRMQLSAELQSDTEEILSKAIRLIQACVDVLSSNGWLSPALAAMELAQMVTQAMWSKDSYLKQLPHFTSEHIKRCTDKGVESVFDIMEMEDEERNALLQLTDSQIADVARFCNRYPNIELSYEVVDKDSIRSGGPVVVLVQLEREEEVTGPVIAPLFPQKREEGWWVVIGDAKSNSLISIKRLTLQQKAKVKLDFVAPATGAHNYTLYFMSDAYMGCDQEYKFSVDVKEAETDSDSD
Chain of Mitogen-activated protein kinase kinase kinase kinase 1 (Q92918 whole entry): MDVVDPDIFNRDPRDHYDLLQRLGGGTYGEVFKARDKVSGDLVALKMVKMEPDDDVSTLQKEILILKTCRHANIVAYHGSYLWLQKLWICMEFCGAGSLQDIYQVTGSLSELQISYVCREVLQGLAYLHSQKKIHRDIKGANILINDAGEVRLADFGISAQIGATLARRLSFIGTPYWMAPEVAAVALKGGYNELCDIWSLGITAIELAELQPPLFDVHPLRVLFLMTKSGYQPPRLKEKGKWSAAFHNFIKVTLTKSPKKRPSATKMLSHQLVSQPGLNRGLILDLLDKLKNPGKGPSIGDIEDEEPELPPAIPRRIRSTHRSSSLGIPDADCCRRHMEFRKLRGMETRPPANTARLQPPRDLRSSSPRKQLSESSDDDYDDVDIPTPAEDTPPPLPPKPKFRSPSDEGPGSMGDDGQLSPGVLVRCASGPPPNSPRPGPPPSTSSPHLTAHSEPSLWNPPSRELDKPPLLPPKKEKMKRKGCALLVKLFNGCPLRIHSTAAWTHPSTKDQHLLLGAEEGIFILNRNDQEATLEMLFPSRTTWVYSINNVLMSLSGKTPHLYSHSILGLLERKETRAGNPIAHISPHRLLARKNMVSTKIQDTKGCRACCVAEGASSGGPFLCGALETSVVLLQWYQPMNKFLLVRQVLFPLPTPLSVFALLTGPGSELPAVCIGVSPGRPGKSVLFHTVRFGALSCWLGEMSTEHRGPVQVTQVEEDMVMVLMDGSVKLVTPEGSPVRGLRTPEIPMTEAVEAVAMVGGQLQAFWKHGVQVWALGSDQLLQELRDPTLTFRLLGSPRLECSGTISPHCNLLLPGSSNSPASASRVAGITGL

Turning to `FC(F)(F)c1ccc(CNc2ccc(Cc3c[nH]c4ncc(Cl)cc34)cn2)cn1` [PEXIDARTINIB], the Kd in test [1], in test [2], in test [3], in test [4], in test [5] and in test [6] was > 30 µM (inactive) throughout. The Kd (on Rab-like protein 3; in test [7]) was > 30 µM (inactive) in each case.
For `CC(C)(O)CC(=O)NCCn1ccc2ncnc(Nc3ccc(Oc4cccc(C(F)(F)F)c4)c(Cl)c3)c21` [TAK-285], the Kd in test [1], in test [2], in test [3], in test [4], in test [5] and in test [6] was > 30 µM (inactive) each time. The Kd (in general, the equilibrium constant for the complex coming apart) on Rab-like protein 3 was > 30 µM (inactive). The pKd (in general, −log10 of the Kd, conventionally taken in molar units) in test [7] was 6.09.
As to `CCOc1ccn(-c2ccc(F)cc2)c(=O)c1C(=O)Nc1ccc(Oc2ccnc(N)c2Cl)c(F)c1` [BMS-777607], the Kd in test [1], in test [2], in test [3], in test [4], in test [5] and in test [6] was > 30 µM (inactive) in each case. Further, the Kd (on Rab-like protein 3; in test [7]) was > 30 µM (inactive) throughout.
With `COc1cc(F)c(F)c(Nc2ccc(I)cc2F)c1NS(=O)(=O)C1(C[C@H](O)CO)CC1` [REFAMETINIB], the Kd in test [1], in test [2], in test [3], in test [4], in test [5] and in test [6] was > 30 µM (inactive) in each case. For the same compound, the Kd (on Rab-like protein 3; in test [7]) was > 30 µM (inactive) each time.
As for `COc1cc2ncnc3c2cc1OCCCCCN(C)Cc1ccc(Br)cc1N3` [JNJ-26483327], the Kd (in test [1]; in test [2]; in test [3]; in test [4]; in test [5]; at Rab-like protein 3) was > 30 µM (inactive) throughout. Moreover, the Kd in test [7] was > 30 µM (inactive). The negative-log Kd (pKd) in test [6] was 8.22.
Turning to `C=CC(=O)Nc1cccc(Nc2nc(Nc3ccc(N4CCN(C(C)=O)CC4)cc3OC)ncc2C(F)(F)F)c1` [ROCILETINIB], the Kd in test [1], in test [2], in test [3], in test [4], in test [5] and in test [6] was > 30 µM (inactive) throughout. Besides, the Kd (at Rab-like protein 3; in test [7]) was > 30 µM (inactive) throughout.
In the case of `CCc1cc2c(cc1N1CCC(N3CCOCC3)CC1)C(C)(C)c1[nH]c3cc(C#N)ccc3c1C2=O` [ALECTINIB], the Kd in test [1], in test [2], in test [3], in test [4], in test [5] and in test [6] was > 30 µM (inactive) throughout. Besides, the Kd (on Rab-like protein 3; in test [7]) was > 30 µM (inactive) throughout.
As to `COc1cc2ncnc(Nc3ccc(F)c(Cl)c3)c2cc1NC(=O)/C=C/CN1CCCCC1` [DACOMITINIB ANHYDROUS], the Kd in test [1], in test [2], in test [3], in test [4], in test [5] and in test [6] was > 30 µM (inactive) throughout. Besides, the Kd (on Rab-like protein 3; in test [7]) was > 30 µM (inactive) in each case.
On to `COc1cc2nccc(Oc3ccc(NC(=O)C4(C(=O)Nc5ccc(F)cc5)CC4)cc3)c2cc1OC` [CABOZANTINIB], for which the Kd was > 30 µM (inactive) in test [1]; > 30 µM (inactive) in test [2]; > 30 µM (inactive) in test [3]; > 30 µM (inactive) in test [4]; 0.342 µM (active) in test [5]; > 30 µM (inactive) in test [6]. Also, the Kd (on Rab-like protein 3; in test [7]) was > 30 µM (inactive) throughout.
In the case of `Cc1c(Cn2c(C)nc3c(C(=O)O)cc(N4CCOCC4)cc32)cccc1C(F)(F)F` [GSK-2636771], the Kd in test [1], in test [2], in test [3], in test [4], in test [5] and in test [6] was > 30 µM (inactive) in each case. For the same compound, the Kd (at Rab-like protein 3; in test [7]) was > 30 µM (inactive) throughout.
Regarding `Cc1cc(Nc2nc(N[C@@H](C)c3ncc(F)cn3)ncc2Cl)n[nH]1` [AZD-1480], the Kd in test [1], in test [2], in test [3], in test [4], in test [5] and in test [6] was > 30 µM (inactive) each time. The Kd (on Rab-like protein 3; in test [7]) was > 30 µM (inactive) throughout.
For the compound `Cc1ccc(C(=O)Nc2ccc(Oc3cc4cnn(C)c4cc3-c3cn[nH]c3)c(F)c2)c(=O)n1-c1ccc(F)cc1` [MERESTINIB], the Kd in test [1], in test [2], in test [3], in test [4], in test [5] and in test [6] was > 30 µM (inactive) throughout. Further, the Kd (at Rab-like protein 3; in test [7]) was > 30 µM (inactive) in each case.
For the compound `CNC(=O)c1cc(COc2nnc(Nc3ccc(Cl)cc3)c3ccoc23)ccn1` [TELATINIB], the Kd in test [1], in test [2], in test [3], in test [4], in test [5] and in test [6] was > 30 µM (inactive) throughout. Moreover, the Kd (on Rab-like protein 3; in test [7]) was > 30 µM (inactive) each time.
